Source: Sander's compilation of Henry's law constants

Key:
[1] = Henry solubility constant Hcp at 296 K (mol/(m3 Pa))
[2] = Henry solubility constant Hcp at 298.15 K (mol/(m3 Pa))
[3] = Henry solubility constant Hcp at 310 K (mol/(m3 Pa))
[4] = Henry solubility constant Hcp at 293 K (mol/(m3 Pa)); conditions: reference: Yurteri et al. (1987)
[5] = reference: Fendinger et al. (1989)
[6] = reference: Järnberg and Johanson (1995)
[7] = reference: McIntosh and Heffron (2000)
[8] = reference: Bissonette et al. (1990)
[9] = reference: Lerman et al. (1983)
[10] = reference: Stoelting and Longshore (1972)
[11] = reference: Smith et al. (1981b)
[12] = reference: Miller and Stuart (2000)
[13] = reference: Johanson and Dynésius (1988)

Clc1ccc(C(c2ccc(Cl)cc2)C(Cl)(Cl)Cl)cc1 [1,1,1-trichloro-2,2-bis-(4-chlorophenyl)-ethane]
Henry solubility constant Hcp at 296 K [1, 5]: 0.77
Henry solubility constant Hcp [2, 5]: 1.2

Cc1cccc(C)c1C [1,2,3-trimethylbenzene]
Henry solubility constant Hcp at 310 K [3, 6]: 0.0011

Cc1ccc(C)c(C)c1 [1,2,4-trimethylbenzene]
Henry solubility constant Hcp at 310 K [3, 6]: 0.00062
Henry solubility constant Hcp at 293 K [4]: 0.0021
Henry solubility constant Hcp ([2]; reference: Li et al. (2008)): 0.0017

Cc1cc(C)cc(C)c1 [1,3,5-trimethylbenzene]
Henry solubility constant Hcp at 310 K [3, 6]: 0.00048
Henry solubility constant Hcp ([2]; reference: Sanemasa et al. (1981)): 0.0011

Cc1cccc(C)c1 [1,3-dimethylbenzene]
Henry solubility constant Hcp at 310 K [3, 7]: 0.00066
Henry solubility constant Hcp [2, 8]: 0.0014
Henry solubility constant Hcp ([2]; reference: Li et al. (2008)): 0.0014
Henry solubility constant Hcp ([2]; reference: Tsibul’skii et al. (1979)): 0.0018

Cc1ccc(C)cc1 [1,4-dimethylbenzene]
Henry solubility constant Hcp at 310 K [3, 7]: 0.00067
Henry solubility constant Hcp [2, 8]: 0.0012
Henry solubility constant Hcp ([2]; reference: Bobadilla et al. (2003)): 0.002
Henry solubility constant Hcp ([2]; reference: Li et al. (2008)): 0.0014
Henry solubility constant Hcp ([2]; reference: Lin and Chou (2006)): 0.0016
Henry solubility constant Hcp ([2]; reference: Park et al. (1997)): 0.00098
Henry solubility constant Hcp ([2]; reference: Wasik and Tsang (1970)): 0.0023

FC(Br)C(F)(F)F (configuration not stated) [1-bromo-1,2,2,2-tetrafluoroethane]
Henry solubility constant Hcp at 310 K ([3]; reference: Edelist et al. (1964)): 0.00012

FC(F)(F)C(Cl)Br (configuration not stated) [1-bromo-1-chloro-2,2,2-trifluoroethane]
Henry solubility constant Hcp at 310 K [3, 9]: 0.00033
Henry solubility constant Hcp at 310 K ([3]; reference: Saidman et al. (1966)): 0.00034
Henry solubility constant Hcp at 310 K [3, 10]: 0.00032
Henry solubility constant Hcp [2, 11]: 0.00053

FC(F)OC(Cl)C(F)(F)F (configuration not stated) [1-chloro-2,2,2-trifluoroethyl difluoromethyl ether]
Henry solubility constant Hcp at 310 K [3, 9]: 0.00024
Henry solubility constant Hcp [2, 11]: 0.00048

CCCCOCC [1-ethoxy-butane]
Henry solubility constant Hcp at 296 K [1, 12]: 0.0064

COCC(C)O (configuration not stated) [1-methoxy-2-propanol]
Henry solubility constant Hcp at 310 K [3, 13]: 4.8

C=C(C)C1CC=C(C)CC1 (configuration not stated) [1-methyl-4-(1-methylethenyl)-cyclohexene]
Henry solubility constant Hcp at 310 K ([3]; reference: Falk et al. (1990)): 0.0007
Henry solubility constant Hcp ([2]; reference: Copolovici and Niinemets (2007)): 0.00026
Henry solubility constant Hcp ([2]; reference: Fichan et al. (1999)): 0.0007
Henry solubility constant Hcp ([2]; reference: Leng et al. (2013)): 0.00048

COC(F)(F)C(Cl)Cl [2,2-dichloro-1,1-difluoro-1-methoxyethane]
Henry solubility constant Hcp at 310 K [3, 9]: 0.0017
Henry solubility constant Hcp at 310 K [3, 10]: 0.0018
Henry solubility constant Hcp [2, 11]: 0.0029

FC(F)OC(F)(F)C(F)Cl (configuration not stated) [2-chloro-1,1,2-trifluoroethyl difluoromethyl ether]
Henry solubility constant Hcp at 310 K [3, 9]: 0.00029

CCOCCO [2-ethoxyethanol]
Henry solubility constant Hcp at 310 K [3, 13]: 8.9

CCOCCOC(C)=O [2-ethoxyethyl ethanoate]
Henry solubility constant Hcp at 310 K [3, 13]: 1.5

CCC(C)(C)OC [2-methoxy-2-methylbutane]
Henry solubility constant Hcp at 296 K [1, 12]: 0.0052
Henry solubility constant Hcp ([2]; reference: Arp and Schmidt (2004)): 0.0086
Henry solubility constant Hcp ([2]; reference: Haimi et al. (2006)): 0.01
Henry solubility constant Hcp ([2]; reference: Hwang et al. (2010)): 0.053
Henry solubility constant Hcp ([2]; reference: Park et al. (1997)): 0.007

COCCO [2-methoxyethanol]
Henry solubility constant Hcp at 310 K [3, 13]: 14

CC1=CCC2C(C1)C2(C)C (configuration not stated) [3,7,7-trimethyl-bicyclo[4.1.0]hept-3-ene]
Henry solubility constant Hcp at 310 K ([3]; reference: Falk et al. (1990)): 0.00016

C=COCC(F)(F)F [(2,2,2-trifluoroethoxy)-ethene]
Henry solubility constant Hcp at 310 K ([3]; reference: Munson et al. (1964)): 0.00033
Henry solubility constant Hcp at 310 K [3, 10]: 0.00032
Henry solubility constant Hcp [2, 11]: 0.00055

ClC(Cl)Br [bromodichloromethane]
Henry solubility constant Hcp at 310 K ([3]; reference: Zhang et al. (2002)): 0.0029
Henry solubility constant Hcp ([2]; reference: Ervin et al. (1980)): 0.0035
Henry solubility constant Hcp ([2]; reference: Nicholson et al. (1984)): 0.0047
Henry solubility constant Hcp ([2]; reference: Ruiz-Bevia and Fernandez-Torres (2010)): 0.0058
Henry solubility constant Hcp ([2]; reference: Warner et al. (1980)): 0.0047

O=C=O [carbon dioxide]
Henry solubility constant Hcp at 310 K ([3]; reference: Power and Stegall (1970)): 0.00024
Henry solubility constant Hcp ([2]; reference: Bohr (1899)): 0.00034
Henry solubility constant Hcp ([2]; reference: Bunsen (1855a)): 0.00034
Henry solubility constant Hcp ([2]; reference: Geffcken (1904)): 0.00033
Henry solubility constant Hcp ([2]; reference: Kunerth (1922)): 0.00033
Henry solubility constant Hcp ([2]; reference: Morrison and Billett (1952)): 0.00033
Henry solubility constant Hcp ([2]; reference: Murray and Riley (1971)): 0.00033
Henry solubility constant Hcp ([2]; reference: Orcutt and Seevers (1937a)): 0.00033
Henry solubility constant Hcp ([2]; reference: Zheng et al. (1997)): 0.00034
